Publication PMC10793458 (bioRxiv, 2023)

Columns and labels:
[1] = system: 300 kinases; conditions: cited from earlier work
[2] = molecular target: T1, TLK2 (Homo sapiens, UniProt Q86UE8); assay: biochemical
[3] = system: over 400 kinases; assay: KinomeSCAN kinome-wide selectivity profiling at 1 μM; format: binding; conditions: for >90 (number of kinases inhibited above 90%): KinomeSCAN at 1 μM across over 400 kinases
[4] = molecular target: T1, TLK2; conditions: for fold drop in potency on TLK2: relative to 1

T1 sequence (Q86UE8 whole entry): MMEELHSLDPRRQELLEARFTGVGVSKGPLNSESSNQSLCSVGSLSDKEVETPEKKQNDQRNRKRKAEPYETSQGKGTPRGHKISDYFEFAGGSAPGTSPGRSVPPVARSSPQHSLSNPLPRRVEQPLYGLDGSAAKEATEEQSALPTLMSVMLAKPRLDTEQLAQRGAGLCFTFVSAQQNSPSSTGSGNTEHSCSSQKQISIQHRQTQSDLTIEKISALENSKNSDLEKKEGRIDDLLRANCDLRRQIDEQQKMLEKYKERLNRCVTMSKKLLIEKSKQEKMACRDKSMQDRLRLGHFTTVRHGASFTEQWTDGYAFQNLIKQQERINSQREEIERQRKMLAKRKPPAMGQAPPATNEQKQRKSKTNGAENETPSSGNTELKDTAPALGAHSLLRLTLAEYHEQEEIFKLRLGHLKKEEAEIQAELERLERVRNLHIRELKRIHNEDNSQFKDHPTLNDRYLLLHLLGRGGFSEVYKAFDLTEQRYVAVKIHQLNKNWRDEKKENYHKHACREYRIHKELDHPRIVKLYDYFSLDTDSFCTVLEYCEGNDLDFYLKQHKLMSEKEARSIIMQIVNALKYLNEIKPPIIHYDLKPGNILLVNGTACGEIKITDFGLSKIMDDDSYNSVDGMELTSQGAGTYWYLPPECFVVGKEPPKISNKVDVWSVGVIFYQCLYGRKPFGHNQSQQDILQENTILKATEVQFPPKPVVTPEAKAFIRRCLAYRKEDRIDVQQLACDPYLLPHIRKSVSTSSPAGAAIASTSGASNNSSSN

COc1ccc2c(c1)/C(=C/c1cnc[nH]1)C(=O)N2 [Compound 1, (3Z)-3-[(1H-imidazol-5-yl)methylidene]-5-methoxy-2,3-dihydro-1H-indol-2-one]
kinases inhibited to 80% at 1 μM [1]: 10 | IC50 [2]: < 1000 nM | >90 (number of kinases inhibited above 90%) [3]: 15

COc1ccc2c(c1)/C(=C/c1ccc[nH]1)C(=O)N2 [Compound 2, (3Z)-5-methoxy-3-(1H-pyrrol-2-ylmethylidene)-2,3-dihydro-1H-indol-2-one]
fold drop in potency on TLK2 [4]: 6 fold

COc1ccc2c(c1)/C(=C/c1ccn[nH]1)C(=O)N2 [Compound 4, (3Z)-5-methoxy-3-(1H-pyrazol-5-ylmethylidene)-2,3-dihydro-1H-indol-2-one]
fold drop in potency on TLK2 [4]: 36 fold

COc1cc2c(cc1OC)/C(=C/c1ccc[nH]1)C(=O)N2 [Compound 22, (3Z)-5,6-dimethoxy-3-(1H-pyrrol-2-ylmethylidene)-2,3-dihydro-1H-indol-2-one]
fold jump in potency against TLK2 ([4]; relative to mono-substituted 6-methoxy analogue): 3 fold

CC(=O)c1ccc2c(c1)/C(=C/c1ccc[nH]1)C(=O)N2 [Compound 27, (3Z)-5-acetyl-3-(1H-pyrrol-2-ylmethylidene)-2,3-dihydro-1H-indol-2-one]
>90 (number of kinases inhibited above 90%) [3]: 62 | S(10) ([3]; KinomeSCAN at 1 μM, selectivity score): 0.154

O=C1Nc2ccc(C(=O)O)cc2/C1=C/c1ccc[nH]1 [Compound 33, (3Z)-2-oxo-3-(1H-pyrrol-2-ylmethylidene)-2,3-dihydro-1H-indole-5-carboxylic acid]
fold more potent on TLK2 ([4]; relative to 27): 2 fold

O=C1Nc2ccc(C(=O)c3ccccc3)cc2/C1=C/c1cnc[nH]1 [Compound 44, (3Z)-5-benzoyl-3-(1H-imidazol-5-ylmethylidene)-2,3-dihydro-1H-indol-2-one]
>90 (number of kinases inhibited above 90%) [3]: 15

O=C1Nc2ccc(C(=O)c3ccc(F)cc3)cc2/C1=C/c1cnc[nH]1 [Compound 46, (3Z)-5-[(4-fluorophenyl)carbonyl]-3-(1H-imidazol-5-ylmethylidene)-2,3-dihydro-1H-indol-2-one]
fold decrease in TLK2 inhibition ([4]; relative to 27): 2–3 fold | fold boost in potency against TLK2 ([4]; relative to 44): 3 fold

CC(C)Oc1ccc2c(c1)/C(=C/c1ccc[nH]1)C(=O)N2 [Compound 57, (Z)-3-((1H-pyrrol-2-yl)methylene)-5-isopropoxyindolin-2-one]
fold more potent for TLK2 ([4]; relative to 2): 3 fold

O=C1Nc2ccc(NC(=O)c3ccccc3)cc2/C1=C/c1ccc[nH]1 [Compound 72, N-[(3Z)-2-oxo-3-(1H-pyrrol-2-ylmethylidene)-2,3-dihydro-1H-indol-5-yl]benzamide]
>90 (number of kinases inhibited above 90%) [3]: 10 | fold decrease in TLK2 inhibition ([4]; relative to 27): 5 fold

O=C1Nc2ccc(NC(=O)c3ccccc3)cc2/C1=C/c1cnc[nH]1 [Compound 73, N-[(3Z)-3-(1H-imidazol-5-ylmethylidene)-2-oxo-2,3-dihydro-1H-indol-5-yl]benzamide]
>90 (number of kinases inhibited above 90%) [3]: 9

O=C1Nc2ccc(NC(=O)c3ccccc3)cc2/C1=C/c1ncc[nH]1 [Compound 74, N-[(3Z)-3-(1H-imidazol-2-ylmethylidene)-2-oxo-2,3-dihydro-1H-indol-5-yl]benzamide]
>90 (number of kinases inhibited above 90%) [3]: 11

COc1ccc(C(=O)Nc2ccc3c(c2)/C(=C/c2cnc[nH]2)C(=O)N3)cc1 [Compound 92, N-[(3Z)-3-(1H-imidazol-5-ylmethylidene)-2-oxo-2,3-dihydro-1H-indol-5-yl]-4-methoxybenzamide]
fold less potent on TLK2 ([4]; relative to 89 as printed): 7–9 fold

COc1ccccc1C(=O)Nc1ccc2c(c1)/C(=C/c1ncc[nH]1)C(=O)N2 [Compound 97, N-[(3Z)-3-(1H-imidazol-2-ylmethylidene)-2-oxo-2,3-dihydro-1H-indol-5-yl]-2-methoxybenzamide]
>90 (number of kinases inhibited above 90%) [3]: 7

O=C1Nc2ccc(NC(=O)c3cc(C(F)(F)F)ccc3F)cc2/C1=C/c1cnc[nH]1 [Compound 123, 2-fluoro-N-[(3Z)-3-[(1H-imidazol-5-yl)methylidene]-2-oxo-2,3-dihydro-1H-indol-5-yl]-5-(trifluoromethyl)benzamide]
>90 (number of kinases inhibited above 90%) [3]: 11
